# Tests used:
# [1] = biological target: T1, rat GABAA receptors α5β2γ2 (Rattus norvegicus, UniProt P18508+P19969); experiment: Stimulation of GABA (EC3-5)-elicited currents in Xenopus oocytes, two-electrode voltage clamp, α5β2γ2; assay type: cell-based
# T1 construct: expressed in transfected cells; host or cells: Xenopus laevis oocytes, cRNA microinjected
# From the text: 7-Chloro-3-(5-dimethylaminomethyl-[1,2,4]oxadiazol-3-yl)-5methyl-4,5-dihydro-imidazol[1,5,-a][1,4]benzodiazepine-6-one was used to test the effects of the compound of formula (II): […]
# Similar procedures were chosen as for the investigation of other GABAA receptor subunit specific substances (e.g., Baur et al., 2005; Mol. Pharmacol. 68, 787-792).
# Lobes of the ovary containing the follicles were obtained by surgical procedures from female Xenopus laevis. Follicles were singled out using a platinum loop. Fifty nL of cRNA solution at a ratio of αx:β2:γ2 of 1:1:5 (3.3-10 nM αx (x=1,2,3,5); 3.3-10 nM β2; 16.7-50 nM γ2) (Boileau et al., 2002; Neuropharmacology 43, 695-700) were microinjected into Xenopus follicles. Several hours after microinjection the follicles were freed of follicular layers and adhering connective tissue by a collagenase/hypertonic shock procedure (Sigel, 1987; J. Physiol.(Land) 386, 73-90). Oocytes were kept at constant 18° C. until measurement (1-4 days) in a modified Barth solution (88 mM NaCl, 1 mM KCl, 2.4 mM NaHCO3, 10 mM Hepes-NaOH (pH 7.5), 0.82 mM MgSO4×7H2O, 0.34 mM Ca(NO3)2×4H2O, 0.41 mM CaCl2×2H2O, 100 U Penicillin/mL, 100 μg Streptomycin/mL, sterile filtered).
# Currents were measured using a home-built amplifier in combination with a xy-recorder or were digitized using a MacLab/200 (AD Instruments) and stored on a computer. Xenopus oocytes were voltage clamped using the two-electrode voltage clamp technique (electrode resistance about 0.8 MΩ) at −80 mV. The medium contained 90 mM NaCl, 1 mM KCl, 1 mM MgCl2, 1 mM CaCl2, 10 mM Na-Hepes (pH 7.4) and 0.5% DMSO.
# GABA was applied for 20-50 seconds without or in combination with other drugs and a washout period of 4 minutes was allowed to ensure full recovery from desensitization, which was experimentally determined. The perfusion solution (6 mL/min) was applied through a glass capillary with an inner diameter of 1.35 mm, the mouth of which was placed about 0.4 mm from the surface of the oocyte. The rate of solution change under our conditions has been estimated 70% within less than 0.5 s (Sigel et al., 1990; Neuron 5, 703-711). The entire perfusion system and the assay chamber were cleaned between drug applications by washing with DMSO.
# Data is given as mean±SD, except in the figures where data is shown for clarity as mean±SEM. Current stimulation was calculated as follows: stimulation (%)=((I(GABA+modulator)−I(GABA))/I(GABA))×100%, where I is the current amplitude. Where indicated, the stimulation was standardized to the stimulation by 1 μM diazepam (100%). To obtain FIGS. 1-4, values for current stimulation obtained at a given concentration of modulator at a given subunit combination were averaged. The data points were fitted with the equation stimulation=efficacy/(1+(potency/concentration of modulator)). The values given in the Tables (Summary) are obtained by fitting individual curves and subsequently averaging efficacy and potency.
# Concentration response curves were also performed with oocytes expressing α2β2γ2, α3β2γ2, or α5β2γ2, after establishing the optimal concentration range as indicated above. […] Averaged data of the individual curves summarizing the effects of the compound of formula (II) are shown below for unstandardized and standardized stimulation.
# Concentration response curves were also performed with oocytes expressing α2β2γ2, α3β2γ2, or α5β2γ2.
# Current stimulation by diazepam was determined in each batch of oocytes as follows. GABA (EC3-5) was applied until a stable response was obtained. Subsequently, GABA was applied in combination with 1 μM diazepam.
# [2] = Example 3: randomized double-blind placebo-controlled crossover study in primary insomnia (PSG, patient reports, DSST, safety); assay type: in vivo, human
# Method: A randomized, multicenter, double-blind, placebo-controlled crossover study was conducted to assess the efficacy of the 1.5 mg and 2.5 mg doses of the compound of formula (II) in the treatment of primary insomnia in adult patients. Specifically, one of the objectives of the study was to assess the efficacy of 1.5 mg and 2.5 mg doses on polysomnogram (PSG) and patient-reported measures of sleep. Also, the study was aimed at assessing the safety of 1.5 mg and 2.5 mg doses.
# The study in this Example was performed for two consecutive nights with a 5-12 day washout between each period. The dosing was conducted 30 minutes before lights were turned out for the night via oral administration of a hard gelatine capsule containing the compound of formula (II) in powder form. PSG was taken for 8 hours from “lights out” on nights 1 and 2 of each treatment period. Centralized scoring of PSG was used. Testing for residual effects using the Digit Symbol Substitution Test (DSST) was performed at least 30 minutes after wake time (9 hours post dose).
# […] These subjects' typical bed time was between 9 pm and 1 am with at least 7 hours in bed. These subjects reported sleep latency of at least 45 minutes and total sleep time (TST) of not more than 6.5 hours in a sleep diary for at least 3 of 7 nights.
# Mean wake time after sleep onset (WASO) of the patients was at least 40 minutes and mean TST was 240-420 minutes.
# T1 sequence (P19969 32-464 limits assumed): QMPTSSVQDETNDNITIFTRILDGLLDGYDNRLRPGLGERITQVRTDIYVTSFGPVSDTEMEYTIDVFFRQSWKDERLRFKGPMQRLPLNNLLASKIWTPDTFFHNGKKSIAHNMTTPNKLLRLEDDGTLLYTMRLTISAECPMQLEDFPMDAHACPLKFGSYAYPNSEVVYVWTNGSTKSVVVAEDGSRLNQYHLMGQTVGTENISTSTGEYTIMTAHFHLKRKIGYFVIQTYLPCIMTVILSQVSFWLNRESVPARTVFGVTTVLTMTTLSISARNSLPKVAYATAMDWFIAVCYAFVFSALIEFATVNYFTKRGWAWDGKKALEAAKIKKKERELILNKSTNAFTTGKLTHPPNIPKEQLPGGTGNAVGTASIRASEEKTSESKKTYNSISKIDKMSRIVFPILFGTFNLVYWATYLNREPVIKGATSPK
# T1 sequence (P63138 25-474 partner limits assumed): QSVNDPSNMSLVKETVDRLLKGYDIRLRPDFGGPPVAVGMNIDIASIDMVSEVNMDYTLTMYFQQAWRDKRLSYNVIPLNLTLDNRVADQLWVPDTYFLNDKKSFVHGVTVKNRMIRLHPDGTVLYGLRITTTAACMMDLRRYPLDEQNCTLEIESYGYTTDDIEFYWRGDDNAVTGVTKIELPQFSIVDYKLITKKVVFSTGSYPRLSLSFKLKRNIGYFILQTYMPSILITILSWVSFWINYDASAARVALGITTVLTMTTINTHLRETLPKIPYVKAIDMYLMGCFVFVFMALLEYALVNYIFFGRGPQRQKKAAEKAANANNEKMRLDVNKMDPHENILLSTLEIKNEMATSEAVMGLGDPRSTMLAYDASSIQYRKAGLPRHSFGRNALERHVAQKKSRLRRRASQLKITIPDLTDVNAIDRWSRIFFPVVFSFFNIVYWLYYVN
# T1 sequence (P18508 39-466): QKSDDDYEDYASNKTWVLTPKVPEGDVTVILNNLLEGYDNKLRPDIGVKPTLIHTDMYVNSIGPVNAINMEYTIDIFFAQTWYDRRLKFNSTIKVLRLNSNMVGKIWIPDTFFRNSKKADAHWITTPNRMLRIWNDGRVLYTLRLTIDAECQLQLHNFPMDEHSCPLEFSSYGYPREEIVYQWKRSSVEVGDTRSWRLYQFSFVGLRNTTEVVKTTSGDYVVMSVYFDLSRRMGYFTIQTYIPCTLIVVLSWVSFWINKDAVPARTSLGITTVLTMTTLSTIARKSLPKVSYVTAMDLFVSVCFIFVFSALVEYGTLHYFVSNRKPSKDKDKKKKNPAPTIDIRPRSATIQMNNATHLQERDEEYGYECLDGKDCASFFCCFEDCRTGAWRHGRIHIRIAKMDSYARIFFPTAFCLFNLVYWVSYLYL
smiles,measurement,setting,value
"CN(C)Cc1nc(-c2ncn3c2CN(C)C(=O)c2c(Cl)cccc2-3)no1 [compound of formula (II), 7-chloro-3-(5-dimethylaminomethyl-[1,2,4]oxadiazol-3-yl)-5-methyl-4,5-dihydro-imidazo[1,5-a][1,4]benzodiazepine-6-one]",EC50,"[1]; GABA EC3-5, mean±SD of individually fitted curves, read-out: Potency",53 ± 6 nM
same,Standardized Efficacy,[1]; standardized to stimulation by 1 μM diazepam (100%),69 ± 23% (n = 5)
same,Efficacy,[1]; unstandardized current stimulation,135 ± 16% (n = 5)
same,increase of TST compared to placebo,[2]; 1.5 mg,33.1 min
same,reduction of LPS compared to placebo,[2]; 1.5 mg,17.0 min
same,reduction of WASO compared to placebo,[2]; 1.5 mg,16.7 min
same,reduction of total wake time in hours 5-8,[2]; 1.5 mg,10.8 min
same,Number of Patients with Any Event,[2]; 1.5 mg (n = 71),13
same,Number of Patients with Headache,[2]; 1.5 mg (n = 71),3
same,Number of Patients with Somnolence,[2]; 1.5 mg (n = 71),2
same,"Patients with Any Event, percent",[2]; 1.5 mg (n = 71),18.3%
same,"Patients with Headache, percent",[2]; 1.5 mg (n = 71),4.2%
same,"Patients with Somnolence, percent",[2]; 1.5 mg (n = 71),2.8%
same,safety and tolerability,[2]; 1.5 mg and 2.5 mg,safe and well-tolerated
same,WASO in the second half of the night (5-8 hours after lights out),"[2]; 1.5 mg and 2.5 mg, compared to placebo, p<0.0001",reduced WASO
same,patient-reported residual sedation effects,[2]; 1.5 mg or 2.5 mg compared with placebo,no patient-reported residual sedation effects
same,"Adjusted mean LPS (min), p value",[2]; 1.5 mg vs. placebo,p < 0.0001
same,"Adjusted mean TST (min), p value",[2]; 1.5 mg vs. placebo,p < 0.0001
same,"Adjusted mean WASO (min), p value",[2]; 1.5 mg vs. placebo,p < 0.0001
same,"Adjusted mean total wake time, 2nd half (min), p value",[2]; 1.5 mg vs. placebo,p = 0.0008
same,increase of TST compared to placebo,[2]; 2.5 mg,45.0 min
same,reduction of LPS compared to placebo,[2]; 2.5 mg,20.7 min
same,reduction of WASO compared to placebo,[2]; 2.5 mg,25.7 min
same,reduction of total wake time in hours 5-8,[2]; 2.5 mg,16.2 min
same,Number of Patients with Any Event,[2]; 2.5 mg (n = 71),18
same,Number of Patients with Headache,[2]; 2.5 mg (n = 71),6
same,Number of Patients with Somnolence,[2]; 2.5 mg (n = 71),4
same,"Patients with Any Event, percent",[2]; 2.5 mg (n = 71),25.4%
same,"Patients with Headache, percent",[2]; 2.5 mg (n = 71),8.5%
same,"Patients with Somnolence, percent",[2]; 2.5 mg (n = 71),5.6%
same,"Adjusted mean LPS (min), p value",[2]; 2.5 mg vs. placebo,p < 0.0001
same,"Adjusted mean TST (min), p value",[2]; 2.5 mg vs. placebo,p < 0.0001
same,"Adjusted mean WASO (min), p value",[2]; 2.5 mg vs. placebo,p < 0.0001
same,"Adjusted mean total wake time, 2nd half (min), p value",[2]; 2.5 mg vs. placebo,p < 0.0001
same,total time awake during each hour after dosing,"[2]; 2.5 mg, hour 7 p 0.0577","statistically significant reduction each hour, except hour 7"
same,REM sleep,[2]; 1.5 and 2.5 mg,only a small effect on REM sleep
same,patient-reported sleep quality,[2]; 1.5 and 2.5 mg,marked improvement in sleep quality
same,sleep architecture,[2]; 1.5 and 2.5 mg,equivalent to the natural sleep architecture
same,slow wave sleep,[2]; 1.5 and 2.5 mg,no impairment of slow wave sleep
same,Digit Symbol Substitution Test (DSST) scores,"[2]; 9 hours after dose, compared with placebo",only slightly lower
